Assays:
SCC-4 = assay: cells; assay type: functional, cell-based, Homo sapiens; details: Homo sapiens, SCC-4;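 further: growth inhibition of human SCC-4 cells, read out as cell viability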
Description: SANGER: Inhibition of human SCC-4 cell growth in a cell viability assay.

PF-382 = assay: cells; assay type: functional, cell-based; details: Homo sapiens
Description: SANGER: Inhibition of human PF-382 cell growth in a cell viability assay.

IST-SL2 = assay: cells; assay type: functional, cell-based; details: Homo sapiens;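 further: growth inhibition of human IST-SL2 cells, read out by a cell viability assay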
Description: SANGER: Inhibition of human IST-SL2 cell growth in a cell viability assay.

RPMI-2650 = assay: cells; assay type: functional, cell-based, Homo sapiens; details: Homo sapiens, RPMI-2650
Description: SANGER: Inhibition of human RPMI-2650 cell growth in a cell viability assay.

CMK = assay: cells; assay type: functional, cell-based; details: Homo sapiens;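 further: growth inhibition of CMK cells, read out as cell viability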
Description: SANGER: Inhibition of human CMK cell growth in a cell viability assay.

Raji = assay: cells; assay type: functional, cell-based; details: Homo sapiens;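 further: cell viability assay measuring inhibition of Raji cell growth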
Description: SANGER: Inhibition of human Raji cell growth in a cell viability assay.

EM-2 = assay: cells; assay type: functional, cell-based; details: Homo sapiens;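 further: growth inhibition of EM-2 cells, read out with a cell viability assay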
Description: SANGER: Inhibition of human EM-2 cell growth in a cell viability assay.

SNU-16 = assay: cells; assay type: functional, cell-based; details: Homo sapiens;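 further: growth inhibition of human SNU-16 cells, determined with a cell viability readout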
Description: SANGER: Inhibition of human NCI-SNU-16 cell growth in a cell viability assay.

EFO-21 = assay: cells; assay type: functional, cell-based, Homo sapiens; details: Homo sapiens, EFO-21;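 further: growth inhibition of EFO-21 cells measured with a viability assay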
Description: SANGER: Inhibition of human EFO-21 cell growth in a cell viability assay.

WSU-NHL = assay: cells; assay type: functional, cell-based; details: Homo sapiens;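 further: growth inhibition of human WSU-NHL cells, read out with a cell viability assay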
Description: SANGER: Inhibition of human WSU-NHL cell growth in a cell viability assay.

EHEB = assay: cells; assay type: functional, cell-based; details: Homo sapiens;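 further: growth inhibition of human EHEB cells, read out with a cell viability assay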
Description: SANGER: Inhibition of human EHEB cell growth in a cell viability assay.

NCI-H716 = assay: cells; assay type: functional, cell-based; details: Homo sapiens;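 further: growth inhibition of human NCI-H716 cells, measured by a cell viability assay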
Description: SANGER: Inhibition of human NCI-H716 cell growth in a cell viability assay.

SW872 = assay: cells; assay type: functional, cell-based, Homo sapiens; details: Homo sapiens, SW872;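 further: growth inhibition of SW872 cells, read out by a viability assay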
Description: SANGER: Inhibition of human SW872 cell growth in a cell viability assay.

IMR-5 = assay: cells; assay type: functional, cell-based; details: Homo sapiens;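 further: growth inhibition of human IMR-5 cells, read out with a cell viability assay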
Description: SANGER: Inhibition of human IMR-5 cell growth in a cell viability assay.

NCI-H1882 = assay: cells; assay type: functional, cell-based; details: Homo sapiens;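 further: growth inhibition of the cell line, determined with a viability assay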
Description: SANGER: Inhibition of human NCI-H1882 cell growth in a cell viability assay.

NCI-H187 = assay: cells; assay type: functional, cell-based; details: Homo sapiens;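 further: growth inhibition of NCI-H187 cells, read out as cell viability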
Description: SANGER: Inhibition of human NCI-H187 cell growth in a cell viability assay.

KARPAS-422 = assay: cells; assay type: functional, cell-based; details: Homo sapiens
Description: SANGER: Inhibition of human KARPAS-422 cell growth in a cell viability assay.

HCC1599 = assay: cells; assay type: functional, cell-based; details: Homo sapiens;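 further: growth inhibition of HCC1599 cells, read out in a cell viability assay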
Description: SANGER: Inhibition of human HCC1599 cell growth in a cell viability assay.

NCI-H2342 = assay: cells; assay type: functional, cell-based; details: Homo sapiens;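 further: growth inhibition of the cancer cell line, determined with a cell viability assay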
Description: SANGER: Inhibition of human NCI-H2342 cell growth in a cell viability assay.

YT = assay: cells; assay type: functional, cell-based; details: Homo sapiens
Description: SANGER: Inhibition of human YT cell growth in a cell viability assay.

ABC-1 = assay: cells; assay type: functional, cell-based, Homo sapiens; details: Homo sapiens, ABC-1;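 further: growth inhibition of human ABC-1 cells, read out by a cell viability assay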
Description: SANGER: Inhibition of human ABC-1 cell growth in a cell viability assay.

NCI-H1573 = assay: cells; assay type: functional, cell-based; details: Homo sapiens;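 further: growth inhibition of NCI-H1573 cells, read out with a cell viability assay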
Description: SANGER: Inhibition of human NCI-H1573 cell growth in a cell viability assay.

RPMI-6666 = assay: cells; assay type: functional, cell-based; details: Homo sapiens
Description: SANGER: Inhibition of human RPMI-6666 cell growth in a cell viability assay.

HSC-3 = assay: cells; assay type: functional, cell-based, Homo sapiens; details: Homo sapiens, HSC-3
Description: SANGER: Inhibition of human HSC-3 cell growth in a cell viability assay.

GCIY = assay: cells; assay type: functional, cell-based, Homo sapiens; details: Homo sapiens, GCIY;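 further: growth inhibition of the human GCIY cell line, read out by a cell viability assay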
Description: SANGER: Inhibition of human GCIY cell growth in a cell viability assay.

IGR-1 = assay: cells; assay type: functional, cell-based, Homo sapiens; details: Homo sapiens, IGR-1;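 further: growth inhibition of human IGR-1 cells, read out with a cell viability assay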
Description: SANGER: Inhibition of human IGR-1 cell growth in a cell viability assay.

SBC-5 = assay: cells; assay type: functional, cell-based, Homo sapiens; details: Homo sapiens, SBC-5;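 further: cell viability assay read-out, IC50 is the concentration that inhibits growth of the cells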
Description: SANGER: Inhibition of human SBC-5 cell growth in a cell viability assay.

EB2 = assay: cells; assay type: functional, cell-based; details: Homo sapiens;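 further: growth inhibition of EB2 cells, read out with a cell viability assay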
Description: SANGER: Inhibition of human EB2 cell growth in a cell viability assay.

MDA-MB-134-VI = assay: cells; assay type: functional, cell-based; details: Homo sapiens
Description: SANGER: Inhibition of human MDA-MB-134-VI cell growth in a cell viability assay.

SU-DHL-1 = assay: SANGER: Inhibition of human SU-DHL-1 cell growth in a cell viability assay.; assay type: functional, cell-based
ECC4 = assay: cells; assay type: functional, cell-based; details: Homo sapiens;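 further: growth inhibition of ECC4 cells, read out with a cell viability assay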
Description: SANGER: Inhibition of human ECC4 cell growth in a cell viability assay.

SNU-387 = assay: cells; assay type: functional, cell-based, Homo sapiens; details: Homo sapiens, SNU-387
Description: SANGER: Inhibition of human SNU-387 cell growth in a cell viability assay.

COLO-668 = assay: cells; assay type: functional, cell-based, Homo sapiens; details: Homo sapiens, COLO-668
Description: SANGER: Inhibition of human COLO-668 cell growth in a cell viability assay.

LB996-RCC = assay: cells; assay type: functional, cell-based; details: Homo sapiens
Description: SANGER: Inhibition of human LB996-RCC cell growth in a cell viability assay.

L-428 = assay: cells; assay type: functional, cell-based; details: Homo sapiens
Description: SANGER: Inhibition of human L-428 cell growth in a cell viability assay.

COLO-684 = assay: cells; assay type: functional, cell-based; details: Homo sapiens
Description: SANGER: Inhibition of human COLO-684 cell growth in a cell viability assay.

NCI-H522 = assay: cells; assay type: functional, cell-based, Homo sapiens; details: Homo sapiens, NCI-H522;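 further: cell viability assay measuring growth inhibition of human NCI-H522 cells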
Description: SANGER: Inhibition of human NCI-H522 cell growth in a cell viability assay.

HCC1187 = assay: cells; assay type: functional, cell-based, Homo sapiens; details: Homo sapiens, HCC1187;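 further: growth inhibition of HCC1187 cells, read out with a cell viability assay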
Description: SANGER: Inhibition of human HCC1187 cell growth in a cell viability assay.

D-263MG = assay: cells; assay type: functional, cell-based, Homo sapiens; details: Homo sapiens, D-263MG
Description: SANGER: Inhibition of human D-263MG cell growth in a cell viability assay.

LP-1 = assay: cells; assay type: functional, cell-based; details: Homo sapiens;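 further: growth inhibition of human LP-1 cells, with the read-out taken from a cell viability assay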
Description: SANGER: Inhibition of human LP-1 cell growth in a cell viability assay.

RL = assay: cells; assay type: functional, cell-based; details: Homo sapiens
Description: SANGER: Inhibition of human RL cell growth in a cell viability assay.

8-MG-BA = assay: cells; assay type: functional, cell-based, Homo sapiens; details: Homo sapiens, 8-MG-BA;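 further: growth inhibition of 8-MG-BA cells, read out with a cell viability assay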
Description: SANGER: Inhibition of human 8-MG-BA cell growth in a cell viability assay.

FaDu = assay: cells; assay type: functional, cell-based, Homo sapiens; details: Homo sapiens, FaDu;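 further: cell viability readout of growth inhibition in FaDu cells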
Description: SANGER: Inhibition of human FADU cell growth in a cell viability assay.

EC-GI-10 = assay: cells; assay type: functional, cell-based, Homo sapiens; details: Homo sapiens, EC-GI-10
Description: SANGER: Inhibition of human EC-GI-10 cell growth in a cell viability assay.

UACC-812 = assay: cells; assay type: functional, cell-based; details: Homo sapiens
Description: SANGER: Inhibition of human UACC-812 cell growth in a cell viability assay.

23132-87 = assay: cells; assay type: functional, cell-based, Homo sapiens; details: Homo sapiens
Description: SANGER: Inhibition of human 23132-87 cell growth in a cell viability assay.

BOKU = assay: cells; assay type: functional, cell-based; details: Homo sapiens;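 further: growth inhibition of the human BOKU cell line, read out by a cell viability assay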
Description: SANGER: Inhibition of human BOKU cell growth in a cell viability assay.

LC4-1 = assay: cells; assay type: functional, cell-based; details: Homo sapiens;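 further: growth inhibition of LC4-1 cells, read out with a cell viability assay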
Description: SANGER: Inhibition of human LC4-1 cell growth in a cell viability assay.

NCI-H1963 = assay: cells; assay type: functional, cell-based; details: Homo sapiens;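 further: cell growth inhibition of the human line, determined with a cell viability assay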
Description: SANGER: Inhibition of human NCI-H1963 cell growth in a cell viability assay.

SIG-M5 = assay: cells; assay type: functional, cell-based; details: Homo sapiens;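 further: cell viability assay read-out, measuring how strongly growth of cultured human SIG-M5 cells is inhibited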
Description: SANGER: Inhibition of human SIG-M5 cell growth in a cell viability assay.

RL95-2 = assay: cells; assay type: functional, cell-based; details: Homo sapiens;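 further: RL95-2 growth inhibition determined through a cell viability readout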
Description: SANGER: Inhibition of human RL95-2 cell growth in a cell viability assay.

Measured: IC50

C=CCc1cccc(/C=N/NC(=O)CN2CCN(Cc3ccccc3)CC2)c1O [PAC-1]
1040 nM: RPMI-6666
1330 nM: L-428
> 2560 nM: SCC-4 | IST-SL2 | RPMI-2650 | EM-2 | SNU-16 | EFO-21 | WSU-NHL | EHEB | NCI-H716 | SW872 | IMR-5 | NCI-H1882 | NCI-H187 | KARPAS-422 | HCC1599 | NCI-H2342 | YT | ABC-1 | NCI-H1573 | HSC-3 | GCIY | IGR-1 | SBC-5 | EB2 | MDA-MB-134-VI | SU-DHL-1 | ECC4 | SNU-387 | COLO-668 | LB996-RCC | COLO-684 | NCI-H522 | HCC1187 | D-263MG | LP-1 | RL | 8-MG-BA | FaDu | EC-GI-10 | UACC-812 | 23132-87 | BOKU | LC4-1 | NCI-H1963 | SIG-M5
2130 nM: CMK | Raji
1060 nM: PF-382

Cc1ccc(Nc2nccc(N(C)c3ccc4c(C)n(C)nc4c3)n2)cc1S(N)(=O)=O [PAZOPANIB]
> 8000 nM: SCC-4 | PF-382 | IST-SL2 | RPMI-2650 | CMK | Raji | EM-2 | SNU-16 | EFO-21 | WSU-NHL | EHEB | SW872 | IMR-5 | NCI-H1882 | NCI-H187 | KARPAS-422 | HCC1599 | YT | ABC-1 | RPMI-6666 | HSC-3 | GCIY | IGR-1 | SBC-5 | MDA-MB-134-VI | SU-DHL-1 | ECC4 | SNU-387 | COLO-668 | LB996-RCC | L-428 | COLO-684 | NCI-H522 | HCC1187 | D-263MG | LP-1 | RL | 8-MG-BA | FaDu | EC-GI-10 | UACC-812 | 23132-87 | BOKU | LC4-1 | NCI-H1963 | SIG-M5
3130 nM: NCI-H2342
2320 nM: NCI-H716
3280 nM: EB2
5970 nM: NCI-H1573

CN1CCN(CCOc2cc(OC3CCOCC3)c3c(Nc4c(Cl)ccc5c4OCO5)ncnc3c2)CC1 [SARACATINIB]
265 nM: EM-2
442 nM: LB996-RCC
1670 nM: RL95-2
> 2000 nM: PF-382 | IST-SL2 | CMK | Raji | SNU-16 | WSU-NHL | EHEB | NCI-H716 | SW872 | IMR-5 | NCI-H1882 | NCI-H187 | KARPAS-422 | HCC1599 | YT | RPMI-6666 | GCIY | EB2 | MDA-MB-134-VI | SU-DHL-1 | ECC4 | COLO-668 | L-428 | COLO-684 | HCC1187 | D-263MG | LP-1 | RL | 8-MG-BA | EC-GI-10 | UACC-812 | BOKU | LC4-1 | NCI-H1963 | SIG-M5

Cn1cncc1[C@@](N)(c1ccc(Cl)cc1)c1ccc2c(c1)c(-c1cccc(Cl)c1)cc(=O)n2C [TIPIFARNIB]
2720 nM: EB2
1710 nM: PF-382
3390 nM: COLO-668
1450 nM: SW872
5900 nM: NCI-H1573
7610 nM: HCC1187
1330 nM: SCC-4
4260 nM: EFO-21
> 16000 nM: EM-2 | SNU-16 | WSU-NHL | EHEB | NCI-H716 | IMR-5 | NCI-H1882 | NCI-H187 | KARPAS-422 | HCC1599 | MDA-MB-134-VI | ECC4 | L-428 | D-263MG | LP-1 | RL | EC-GI-10 | UACC-812 | BOKU | NCI-H1963
7060 nM: SNU-387
13300 nM: IST-SL2
1620 nM: IGR-1
2550 nM: LC4-1
8380 nM: FaDu
8290 nM: RPMI-2650
< 62.5 nM: RPMI-6666 | SIG-M5
380 nM: NCI-H2342
3210 nM: ABC-1
6700 nM: 23132-87
2400 nM: NCI-H522
5710 nM: COLO-684
7270 nM: SU-DHL-1
7690 nM: LB996-RCC
151 nM: CMK
2810 nM: SBC-5
12500 nM: Raji | GCIY
1650 nM: YT
2630 nM: HSC-3
2130 nM: 8-MG-BA

CCC(=O)N1CCN(c2ccc(-n3c(=O)ccc4cnc5ccc(-c6cnc7ccccc7c6)cc5c43)cc2C(F)(F)F)CC1 [TORIN1]
302 nM: SNU-16
10.1 nM: GCIY
626 nM: NCI-H1963
1190 nM: ECC4
167 nM: NCI-H1882
22.5 nM: SW872
15.4 nM: CMK
89 nM: SIG-M5
46.3 nM: 8-MG-BA
165 nM: IMR-5
45.6 nM: COLO-684
468 nM: HCC1187
11.4 nM: LB996-RCC
143 nM: MDA-MB-134-VI
372 nM: BOKU
87.4 nM: LC4-1
645 nM: SU-DHL-1
478 nM: NCI-H187
89.4 nM: LP-1
115 nM: EM-2
53.6 nM: IST-SL2
512 nM: EHEB
288 nM: RPMI-6666
> 1200 nM: Raji | WSU-NHL | NCI-H716 | YT | EB2 | RL | EC-GI-10
48.8 nM: HCC1599
75.7 nM: PF-382
661 nM: D-263MG
124 nM: KARPAS-422
3.2 nM: RL95-2
103 nM: L-428
294 nM: COLO-668

Cc1cc(Nc2cc(N3CCN(C)CC3)nc(Sc3ccc(NC(=O)C4CC4)cc3)n2)n[nH]1 [TOZASERTIB]
1420 nM: CMK
167 nM: SIG-M5
636 nM: SNU-16
809 nM: HCC1599
> 2000 nM: PF-382 | Raji | WSU-NHL | EHEB | NCI-H716 | SW872 | NCI-H1882 | YT | RPMI-6666 | GCIY | EB2 | MDA-MB-134-VI | SU-DHL-1 | ECC4 | COLO-668 | LB996-RCC | L-428 | COLO-684 | D-263MG | LP-1 | RL | 8-MG-BA | EC-GI-10 | BOKU | LC4-1
373 nM: KARPAS-422
720 nM: IST-SL2
1710 nM: NCI-H1963
1010 nM: HCC1187
406 nM: RL95-2
266 nM: EM-2
641 nM: NCI-H187
355 nM: IMR-5
